Source: the supplement of paper PMC7600603

Assays:
DLD1 NRF2-WT [1] = test: drug sensitivity score (DSS) viability (DSS score); higher = more sensitive; extreme values may be limits of the assay; conditions: 72 h; CellTiter-Glo viability
Procedure, shortened: (§1)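 EC50 and drug sensitivity score, the latter a normalised area under the curve, were calculated from logistic dose-response fits. The fits had four parameters and used CellTiter-Glo viability data read on a Pherastar FS reader 72 h after treatment, normalised to vehicle wells and 100-μM positive-control wells. Treated cells were isogenic DLD1 colorectal cancer cells, NRF2 wild-type or CRISPR gain-of-function, exposed in 384-well plates to library compounds at 5 concentrations spanning a 10,000-fold range.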

DLD1 NRF2-GOF [2] = test: as above; conditions: 72 h; CellTiter-Glo viability
Procedure, shortened: as §1

DLD1 NRF2-WT [3] = test: TC50 cytotoxicity; higher = less toxic; conditions: 72 h; CellTox Green cytotoxicity
Procedure, shortened: (§2)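 Isogenic DLD1 colorectal cancer cells, either NRF2 wild-type or CRISPR gain-of-function, were grown in DMEM with 10% FBS. They were exposed in 384-well plates to library compounds at 5 concentrations spanning a 10,000-fold range. After 72 h, cytotoxicity was read by CellTox Green on a Pherastar FS reader and normalised to vehicle wells and 100-μM positive-control wells. TC50 and drug sensitivity score (a normalised area under the curve) came from logistic dose-response fits.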

DLD1 NRF2-GOF [4] = test: TC50 cytotoxicity; higher = less toxic; conditions: 72 h; CellTox Green cytotoxicity
Procedure, shortened: as §2

DLD1 NRF2-WT [5] = conditions: 72 h; CellTiter-Glo viability
Procedure, shortened: as §1

DLD1 NRF2-GOF [6] = conditions: 72 h; CellTiter-Glo viability
Procedure, shortened: as §1

DLD1 NRF2-WT [7] = test: drug sensitivity score (DSS) cytotoxicity (DSS score); higher = more toxic; extreme values may be limits of the assay; conditions: 72 h; CellTox Green cytotoxicity
Procedure, shortened: as §2

DLD1 NRF2-GOF [8] = test: as above; conditions: 72 h; CellTox Green cytotoxicity
Procedure, shortened: as §2

EC50 viability (DLD1 NRF2-WT [5]) [µM]	EC50 viability (DLD1 NRF2-GOF [6]) [µM]	SMILES	drug sensitivity score (DLD1 NRF2-WT [1])	drug sensitivity score (DLD1 NRF2-GOF [2])	TC50 cytotoxicity (DLD1 NRF2-WT [3]) [µM]	TC50 cytotoxicity (DLD1 NRF2-GOF [4]) [µM]	drug sensitivity score (DLD1 NRF2-WT [7])	drug sensitivity score (DLD1 NRF2-GOF [8])
> 10	> 10	Cc1ccc(=O)n(-c2ccccc2)c1 [Pirfenidone]	0	0	> 10	> 10	0	0
0.315	1.49	CC(=O)c1c(C)c2cnc(Nc3ccc(N4CCNCC4)cn3)nc2n(C2CCCC2)c1=O [Palbociclib]	12.3	6.7	> 10	> 10	0.2	0
> 10	1.7	COC12C(COC(N)=O)C3=C(C(=O)C(C)=C(N)C3=O)N1CC1NC12 (stereo in doubt) [Mitomycin C]	0	4	> 10	> 10	0	0
0.0531	0.0444	Cc1ccc(Nc2nccc(N(C)c3ccc4c(C)n(C)nc4c3)n2)cc1S(N)(=O)=O [Pazopanib]	6.9	10.2	> 10	> 10	0	0
2.4	1.22	COc1cc(NS(C)(=O)=O)ccc1Nc1c2ccccc2nc2ccccc12 [Amsacrine]	4.4	6.2	> 10	> 10	0.7	0
> 10	0.0101	CC[C@@H]1CN(C(=O)NCC(F)(F)F)C[C@@H]1c1cnc2cnc3[nH]ccc3n12 [Upadacitinib]	0	10.7	> 10	> 10	0	0
0.0034	0.0096	CCc1cnn2c(NCc3ccc[n+]([O-])c3)cc(N3CCCC[C@H]3CCO)nc12 [Dinaciclib]	27.5	21	> 1	> 1	3.3	0
0.547	0.479	CCCCC(=O)OCC(=O)[C@]1(O)Cc2c(O)c3c(c(O)c2[C@@H](O[C@H]2C[C@H](NC(=O)C(F)(F)F)[C@H](O)[C@H](C)O2)C1)C(=O)c1c(OC)cccc1C3=O [Valrubicin]	6.8	8.1	> 5	> 5	0	0
0.175	0.106	NC(=O)Nc1cc(-c2cccc(F)c2)sc1C(=O)N[C@H]1CCCNC1 [AZD7762]	5.3	7.6	0.247	0.362	2.2	1.7
> 10	> 10	COc1ccc(COc2cc3oc(=O)c4cc(C(C)O)ccc4c3cc2OC)cc1 (stereo unspecified) [Palomid-529]	0	0.6	> 10	> 10	0	0
1.93	3.61	CC(C)(C)C[C@@H]1N[C@@H](C(=O)N[C@H]2CC[C@H](O)CC2)[C@H](c2cccc(Cl)c2F)[C@]12C(=O)Nc1cc(Cl)ccc12	4.4	1.5	> 10	> 10	0	0
0.217	1.17	CCn1c(C(=O)N(C2CC2)C2CC2)cc2c3c(ncn3C)c(Nc3cc(C)n(C)n3)nc21	7.2	7.1	> 10	> 10	0	0
0.353	0.143	C=CCn1c(=O)c2cnc(Nc3ccc(N4CCN(C)CC4)cc3)nc2n1-c1cccc(C(C)(C)O)n1 [AZD1775]	14.5	16.9	1	0.171	5.7	6.1
0.255	0.259	O=c1[nH]c(=O)n([C@H]2C[C@H](O)[C@@H](CO)O2)cc1F [Floxuridine]	12.2	11.8	> 10	> 10	0	0
1.78	3.13	Nc1cc(C(F)(F)F)c(-c2cc(N3CCOCC3)nc(N3CCOCC3)n2)cn1 [Buparlisib]	7	4.2	> 10	> 10	0.4	0
> 2.5	> 2.5	Cc1cc([C@@H](C)Nc2ccccc2C(=O)O)c2nc(N3CCOCC3)cc(=O)n2c1 [AZD-6482]	0.1	0	> 2.5	> 2.5	0	0
0.323	0.0649	CCS(=O)(=O)N1CCN(c2ccc(Nc3ncc(C(N)=O)c(NC4CC4)n3)cc2)CC1 [Cerdulatinib]	4.3	13.8	> 10	> 10	0	0
0.933	0.844	C=CC[C@@H]1/C=C(\C)C[C@H](C)C[C@H](OC)[C@H]2O[C@@](O)(C(=O)C(=O)N3CCCC[C@H]3C(=O)O[C@H](/C(C)=C/[C@@H]3CC[C@@H](O)[C@H](OC)C3)[C@H](C)[C@@H](O)CC1=O)[C@H](C)C[C@@H]2OC [Tacrolimus]	4.5	5	> 10	> 10	0	0
> 10	> 10	N#CC(c1ccnc(OCc2ccc(CN3CCOCC3)cc2)n1)c1nc2ccccc2s1 (stereo unspecified) [Bentamapimod]	0	0	> 10	> 10	0	0
1.51	1.53	CCc1cncnc1N1CCN(Cc2nc3cc(C(F)(F)F)ccc3[nH]2)CC1	4.6	3	> 10	> 10	0	0

EC50 viability (DLD1 NRF2-WT [5]) [µM]	EC50 viability (DLD1 NRF2-GOF [6]) [µM]	SMILES	drug sensitivity score (DLD1 NRF2-WT [1])	drug sensitivity score (DLD1 NRF2-GOF [2])	TC50 cytotoxicity (DLD1 NRF2-WT [3]) [µM]	TC50 cytotoxicity (DLD1 NRF2-GOF [4]) [µM]	drug sensitivity score (DLD1 NRF2-WT [7])	drug sensitivity score (DLD1 NRF2-GOF [8])
0.0473	0.0245	C[C@H]1O[C@@H](O[C@H]2[C@@H](O)C[C@H](O[C@H]3[C@@H](O)C[C@H](O[C@H]4CC[C@@]5(C)[C@H](CC[C@@H]6[C@@H]5C[C@@H](O)[C@]5(C)[C@@H](C7=CC(=O)OC7)CC[C@]65O)C4)O[C@@H]3C)O[C@@H]2C)C[C@H](O)[C@@H]1O [Digoxin]	15.8	18.8	0.327	0.217	4.3	4.6
0.284	0.11	CC#CC(=O)N1CCC[C@H]1c1nc(-c2ccc(C(=O)Nc3ccccn3)cc2)c2c(N)nccn12 [Acalabrutinib]	1.7	4	> 1	> 1	0	0
> 10	> 10	CN1CCN(c2nc(C3=C(c4c[nH]c5ccccc45)C(=O)NC3=O)c3ccccc3n2)CC1 [Sotrastaurin]	1.2	0	> 10	> 10	0	0
0.0964	0.247	COc1cc2ncnc(Nc3ccc(F)c(Cl)c3)c2cc1NC(=O)/C=C/CN1CCCCC1 [Dacomitinib]	5.9	2.4	> 1	> 1	0	0
1.99	2.3	CCn1c(-c2nonc2N)nc2cnc(Oc3cccc(NC(=O)c4ccc(OCCN5CCOCC5)cc4)c3)cc21	5.4	6.3	> 10	1.55	1.2	6.1
0.252	0.279	C[C@@]1(C(=O)Nc2ccc(F)nc2)CCCN1c1nc(Nc2cc(C3CC3)n[nH]2)c2cccn2n1	13	14.8	0.326	0.319	6.3	11
0.0202	0.103	COc1cc(C)c(/C=C/C(C)=C/C=C/C(C)=C/C(=O)O)c(C)c1C [Acitretin]	15.5	10.3	> 10	> 10	0	0
0.169	0.112	CC[C@H](CC#N)OC(=O)N[C@@H](C)c1cccc(NC(=O)Nc2ccc(-c3cnco3)c(OC)c2)c1 [AVN944]	15.6	15.9	> 10	> 10	0	0
0.424	0.402	C=CC(=O)Nc1cc(Nc2nccc(-c3cn(C)c4ccccc34)n2)c(OC)cc1N(C)CCN(C)C [Osimertinib]	6.6	4.7	> 2.5	> 2.5	0.7	0
1.77	3.12	Nc1ncnc2c1c(-c1cccc(OCc3ccccc3)c1)cn2[C@H]1C[C@@H](CN2CCC2)C1 [NVP-AEW541]	6.8	5	> 10	> 10	0.1	1.5
1.67	1.75	NS(=O)(=O)NCCNc1nonc1/C(=N/O)Nc1ccc(F)c(Br)c1 [Epacadostat]	3.8	3.2	> 10	> 10	0	0
2.46	4.08	COc1cc2ncnc(Nc3ccc(F)c(Cl)c3)c2cc1OCCCN1CCOCC1 [Gefitinib]	3.7	1.5	> 10	> 10	0	0
0.496	0.718	CNc1ncc2cc(-c3cc(NC(=O)NCCC(C)(C)C)c(F)cc3C)c(C)nc2n1	9.9	6.4	> 10	> 10	0	0
> 10	> 10	O=c1ncn2nc(Sc3ccc(F)cc3F)ccc2c1-c1c(Cl)cccc1Cl [VX-745]	1.4	0.2	> 10	> 10	0	0
0.725	1.34	CC1(C)OCCn2c1nc1c(N3CCOCC3)nc(-c3cnc(N)nc3)nc12 [GDC-0084]	10.9	8.4	3.65	> 10	1.1	0.3
> 10	> 10	CC[C@@H]1[C@H](F)C(=O)N[C@@H]1COc1nccc2cc(C(N)=O)c(OC)cc12	0.5	2.4	> 10	> 10	0	0
0.937	1.33	CCCN(CCC)C(=O)C1=Cc2ccc(-c3ccc(C(=O)N4CCCC4)cc3)cc2N=C(N)C1 [Motolimod]	4.4	3.6	> 10	> 10	0	0
0.412	0.387	COC(=O)N[C@@H](C)CNc1nccc(-c2cn(C(C)C)nc2-c2cc(Cl)cc(NS(C)(=O)=O)c2F)n1 [Encorafenib]	1.1	1.3	> 1	> 1	0	0
0.0064	0.0046	CON(C)C(=O)N1N=C(c2cc(F)ccc2F)S[C@@]1(CCCN)c1ccccc1 [Filanesib]	21.5	18.6	> 1	> 1	5.3	6.2
1.07	1.5	Nc1ncnc2c1nc(N)n2[C@@H]1O[C@H](CO)[C@@H](O)[C@H]1O [8-amino-adenosine]	20	18.2	4.71	5.2	11.8	11.2

SMILES	EC50 viability (DLD1 NRF2-WT [5]) [µM]	EC50 viability (DLD1 NRF2-GOF [6]) [µM]	drug sensitivity score (DLD1 NRF2-WT [1])	drug sensitivity score (DLD1 NRF2-GOF [2])	TC50 cytotoxicity (DLD1 NRF2-WT [3]) [µM]	TC50 cytotoxicity (DLD1 NRF2-GOF [4]) [µM]	drug sensitivity score (DLD1 NRF2-WT [7])	drug sensitivity score (DLD1 NRF2-GOF [8])
CCNC(=O)C[C@@H]1N=C(c2ccc(Cl)cc2)c2cc(OC)ccc2-n2c(C)nnc21	1.09	> 10	5.2	0.1	> 10	> 10	0	0
Cc1sc2c(c1C)C(c1ccc(Cl)cc1)=N[C@@H](CC(=O)OC(C)(C)C)c1nnc(C)n1-2 [JQ1]	0.272	2.71	8.8	2.6	> 10	> 10	0	0
